{
  "source": "patent US6469149B1",
  "about": "(priority 1997, dated 2002)",
  "key": {"ascorbic acid synthesis": {"tested_on": "ascorbic acid synthesis", "conditions": "literature statement; cited from earlier work"}, "[1]": {"target": "T1, L-galactono-γ-lactone dehydrogenase (Brassica oleracea, UniProt O47881)", "T1 construct": "The resulting mature protein of 509 amino acids has a calculated molecular mass of 57,837 Da; from tissue; host or cells: cauliflower florets (mitochondrial pellet, acetone-precipitated extract; DEAE, Phenyl Sepharose and Sephacryl gel filtration fractions)", "T1 sequence (O47881 92-600)": "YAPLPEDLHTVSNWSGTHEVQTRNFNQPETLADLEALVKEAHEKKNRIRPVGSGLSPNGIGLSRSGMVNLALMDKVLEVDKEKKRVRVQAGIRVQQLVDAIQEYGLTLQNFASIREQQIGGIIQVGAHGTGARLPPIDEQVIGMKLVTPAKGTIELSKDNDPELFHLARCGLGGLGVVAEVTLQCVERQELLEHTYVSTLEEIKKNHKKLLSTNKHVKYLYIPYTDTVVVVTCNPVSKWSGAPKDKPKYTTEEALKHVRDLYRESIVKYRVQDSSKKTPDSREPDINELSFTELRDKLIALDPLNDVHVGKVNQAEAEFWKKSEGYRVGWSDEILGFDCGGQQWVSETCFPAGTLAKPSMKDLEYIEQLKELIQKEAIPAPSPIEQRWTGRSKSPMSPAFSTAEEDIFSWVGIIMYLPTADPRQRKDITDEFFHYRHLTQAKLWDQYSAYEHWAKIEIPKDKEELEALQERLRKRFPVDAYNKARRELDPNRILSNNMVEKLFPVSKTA", "assay": "GLDase activity in the presence of lycorine (reduction of cytochrome c, absorption at 550 nm)", "type": "biochemical, cauliflower (Brassica olecera var. botrytis)", "design": "Activity of the enzyme expressed in increase in absorption at 550 nm/second: scale not given here", "description": "The GLDase activity of the fractions was is determined spectrophotometrically by monitoring the L-galactono-γ-lactone dehydrogenase-dependent reduction of cytochrome c at 22° C. A typical reaction mixture contained the enzyme extract, 1.5 mg/ml cytochrome c and 4.2 mM L-galactono-γ-lactone in 0.05 M Tris-HCl buffer (pH 8.4). Reduction of cytochrome c was monitored by determining the absorption increase at 550 nm. Under these conditions the speed of the reaction was linear in respect of time for an initial period of 15 minutes. One unit of enzyme activity was defined as the quantity of enzyme reducing 2 μmol of cytochrome C per minute.\nLycorine was isolated from the plant Crinum asiaticum and the identity of the isolated product was verified by NMR, electron spray mass spectrometry HPLC analysis and capillary electrophoresis. Fractions of L-galactono-γ-lactone dehydrogenase activity isolated from the gel filtration column were tested for their activity in two different buffers in the presence of 5 or 50 μM lycorine (see table 3)."}, "[2]": {"target": "T2, L-galactono-γ-lactone dehydrogenase (Arabidopsis thaliana, UniProt Q9SU56)", "T2 sequence (Q9SU56 102-610)": "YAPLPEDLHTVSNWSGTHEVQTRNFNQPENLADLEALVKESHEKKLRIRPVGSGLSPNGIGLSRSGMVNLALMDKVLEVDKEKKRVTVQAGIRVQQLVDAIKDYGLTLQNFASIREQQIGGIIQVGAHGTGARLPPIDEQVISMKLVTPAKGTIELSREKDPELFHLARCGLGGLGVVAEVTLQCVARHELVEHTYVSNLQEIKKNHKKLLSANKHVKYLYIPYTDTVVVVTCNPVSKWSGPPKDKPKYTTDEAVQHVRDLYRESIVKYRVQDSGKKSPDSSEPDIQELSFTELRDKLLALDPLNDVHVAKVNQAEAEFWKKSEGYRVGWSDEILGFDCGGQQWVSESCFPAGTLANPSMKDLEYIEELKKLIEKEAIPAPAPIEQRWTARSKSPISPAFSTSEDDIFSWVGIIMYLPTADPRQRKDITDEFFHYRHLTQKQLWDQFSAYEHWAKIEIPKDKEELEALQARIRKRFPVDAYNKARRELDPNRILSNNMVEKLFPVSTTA", "conditions": "literature (De Tullio et al. 1994; Arrigoni et al. 1996); cited from earlier work"}},
  "data": [
    {"smiles": "O[C@H]1[C@H]2c3cc4c(cc3CN3CCC(=C[C@@H]1O)[C@H]23)OCO4", "note": "[lycorine]", "values": [
      {"measurement": "Concentration at which ascorbic acid synthesis is inhibited", "setting": "ascorbic acid synthesis", "value": "≥ 1", "unit": "µM"},
      {"measurement": "Activity of the enzyme expressed in increase in absorption at 550 nm/second", "setting": "[1]; 5 μM lycorine, 75 mM PO4 pH 7.0, 0 μM control 0.980", "value": "0.857 absorption at 550 nm/second"},
      {"measurement": "Activity of the enzyme expressed in increase in absorption at 550 nm/second", "setting": "[1]; 5 μM lycorine, 75 mM PO4 pH 7.5, 0 μM control 1.385", "value": "1.372 absorption at 550 nm/second"},
      {"measurement": "Activity of the enzyme expressed in increase in absorption at 550 nm/second", "setting": "[1]; 5 μM lycorine, 75 mM PO4 pH 8, 0 μM control 1.882", "value": "1.690 absorption at 550 nm/second"},
      {"measurement": "Activity of the enzyme expressed in increase in absorption at 550 nm/second", "setting": "[1]; 5 μM lycorine, 75 mM Tris pH 7.4, 0 μM control 3.627", "value": "3.927 absorption at 550 nm/second"},
      {"measurement": "Activity of the enzyme expressed in increase in absorption at 550 nm/second", "setting": "[1]; 5 μM lycorine, 75 mM Tris pH 8.2, 0 μM control 6.365", "value": "6.400 absorption at 550 nm/second"},
      {"measurement": "Activity of the enzyme expressed in increase in absorption at 550 nm/second", "setting": "[1]; 5 μM lycorine, 75 mM Tris pH 8.9, 0 μM control 5.438", "value": "5.199 absorption at 550 nm/second"},
      {"measurement": "Activity of the enzyme expressed in increase in absorption at 550 nm/second", "setting": "[1]; 50 μM lycorine, 75 mM PO4 pH 7.0, 0 μM control 0.980", "value": "0.842 absorption at 550 nm/second"},
      {"measurement": "Activity of the enzyme expressed in increase in absorption at 550 nm/second", "setting": "[1]; 50 μM lycorine, 75 mM PO4 pH 7.5, 0 μM control 1.385", "value": "1.254 absorption at 550 nm/second"},
      {"measurement": "Activity of the enzyme expressed in increase in absorption at 550 nm/second", "setting": "[1]; 50 μM lycorine, 75 mM PO4 pH 8, 0 μM control 1.882", "value": "1.768 absorption at 550 nm/second"},
      {"measurement": "Activity of the enzyme expressed in increase in absorption at 550 nm/second", "setting": "[1]; 50 μM lycorine, 75 mM Tris pH 7.4, 0 μM control 3.627", "value": "3.743 absorption at 550 nm/second"},
      {"measurement": "Activity of the enzyme expressed in increase in absorption at 550 nm/second", "setting": "[1]; 50 μM lycorine, 75 mM Tris pH 8.2, 0 μM control 6.365", "value": "6.127 absorption at 550 nm/second"},
      {"measurement": "Activity of the enzyme expressed in increase in absorption at 550 nm/second", "setting": "[1]; 50 μM lycorine, 75 mM Tris pH 8.9, 0 μM control 5.438", "value": "5.507 absorption at 550 nm/second"},
      {"measurement": "Effect on GLDase activity", "setting": "[1]; 100 μM lycorine, additional tests", "value": "did not show a decrease in activity"},
      {"measurement": "Effect on GLDase activity after pre-incubation", "setting": "[1]; pre-incubation of one hour of the enzyme with lycorine", "value": "did not influence the enzyme activity"},
      {"measurement": "Sensitivity of the isolated GLDase to lycorine", "setting": "[1]; up to a concentration of 50 μM", "value": "lycorine-insensitive"},
      {"measurement": "Inhibition of L-galactono-γ-lactone dehydrogenase", "setting": "[2]", "value": "inhibited"}
    ]}
  ]
}
